In the supplement of paper PMC10307832:

Legend:
Assay in all cases: relative viability (nuclei count vs DMSO), 5 days (fraction); higher = more cells survive
EMC-BAC-2 = tested on: EMC-BAC-2
Method in brief: (§1)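 Medians of duplicate plates are given as relative viability. That measure is the nuclei count in treated wells divided by the count in vehicle wells. Counts were taken on 4× images of lung cancer cell lines in 1536-well plates, 5 days after pin-tool dosing the day after seeding with one drug alone or a fixed anchor-drug dose plus five library-drug doses (not always all listed) in √10 steps.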

NCI-H2009 = tested on: NCI-H2009
Method in brief: as §1

NCI-H727 = tested on: NCI-H727
Method in brief: as §1

NCI-H1993 = tested on: NCI-H1993
Method in brief: as §1

EPLC-272H = tested on: EPLC-272H
Method in brief: as §1

NCI-H1915 = tested on: NCI-H1915
Method in brief: as §1

LXF-289 = tested on: LXF-289
Method in brief: as §1

NCI-H2023 = tested on: NCI-H2023
Method in brief: as §1

NCI-H2347 = tested on: NCI-H2347
Method in brief: as §1

NCI-H647 = tested on: NCI-H647
Method in brief: as §1

HOP-62 = tested on: HOP-62
Method in brief: as §1

NCI-H2126 = details: first compound 0.08 µM
Method in brief: as §1

Compound: O=c1cc(-c2cccc3c2Sc2ccccc2S3)oc(N2CCOCC2)c1 + C[C@]1(O)C[C@@H](c2nc(-c3ccc4ccc(-c5ccccc5)nc4c3)c3c(N)nccn32)C1 [Linsitinib] (partner 1 µM)
- relative viability (EMC-BAC-2; first compound 0.08 µM): 0.828
- relative viability (EMC-BAC-2; first compound 0.253 µM): 0.9
- relative viability (EMC-BAC-2; first compound 0.8 µM): 0.842
- relative viability (EMC-BAC-2; first compound 2.53 µM): 0.817
- relative viability (EMC-BAC-2; first compound 8 µM): 0.878
- relative viability (NCI-H2009; first compound 0.08 µM): 1.17
- relative viability (NCI-H2009; first compound 0.253 µM): 1.22
- relative viability (NCI-H2009; first compound 0.8 µM): 1.19
- relative viability (NCI-H2009; first compound 2.53 µM): 1.12
- relative viability (NCI-H2009; first compound 8 µM): 1.11
- relative viability (NCI-H727; first compound 0.253 µM): 0.284
- relative viability (NCI-H727; first compound 2.53 µM): 0.314
- relative viability (NCI-H727; first compound 8 µM): 0.304
- relative viability (NCI-H1993; first compound 0.08 µM): 0.739
- relative viability (NCI-H1993; first compound 0.253 µM): 0.683
- relative viability (NCI-H1993; first compound 0.8 µM): 0.687
- relative viability (NCI-H1993; first compound 2.53 µM): 0.799
- relative viability (NCI-H1993; first compound 8 µM): 0.859
- relative viability (EPLC-272H; first compound 0.08 µM): 1.12
- relative viability (EPLC-272H; first compound 0.253 µM): 1.31
- relative viability (EPLC-272H; first compound 0.8 µM): 1.3
- relative viability (EPLC-272H; first compound 2.53 µM): 1.19
- relative viability (EPLC-272H; first compound 8 µM): 1.13
- relative viability (NCI-H1915; first compound 0.08 µM): 1.06
- relative viability (NCI-H1915; first compound 0.253 µM): 1.1
- relative viability (NCI-H1915; first compound 0.8 µM): 1.07
- relative viability (NCI-H1915; first compound 2.53 µM): 1.05
- relative viability (NCI-H1915; first compound 8 µM): 1.12
- relative viability (LXF-289; first compound 0.08 µM): 0.993
- relative viability (LXF-289; first compound 0.253 µM): 0.976
- relative viability (LXF-289; first compound 0.8 µM): 0.99
- relative viability (LXF-289; first compound 2.53 µM): 0.96
- relative viability (LXF-289; first compound 8 µM): 1.07
- relative viability (NCI-H2023; first compound 0.08 µM): 0.611
- relative viability (NCI-H2023; first compound 0.253 µM): 0.747
- relative viability (NCI-H2023; first compound 0.8 µM): 0.723
- relative viability (NCI-H2023; first compound 2.53 µM): 0.458
- relative viability (NCI-H2023; first compound 8 µM): 0.416
- relative viability (NCI-H2347; first compound 0.08 µM): 0.918
- relative viability (NCI-H2347; first compound 0.253 µM): 1.15
- relative viability (NCI-H2347; first compound 0.8 µM): 0.998
- relative viability (NCI-H2347; first compound 2.53 µM): 1.02
- relative viability (NCI-H2347; first compound 8 µM): 1.11
- relative viability (NCI-H647; first compound 0.08 µM): 1.3
- relative viability (NCI-H647; first compound 0.253 µM): 1.16
- relative viability (NCI-H647; first compound 0.8 µM): 1.16
- relative viability (NCI-H647; first compound 2.53 µM): 1.03
- relative viability (NCI-H647; first compound 8 µM): 1.35
- relative viability (HOP-62; first compound 0.08 µM): 1.04
- relative viability (HOP-62; first compound 0.253 µM): 1.01
- relative viability (HOP-62; first compound 0.8 µM): 1.01
- relative viability (HOP-62; first compound 2.53 µM): 0.789
- relative viability (HOP-62; first compound 8 µM): 0.917
- relative viability (NCI-H2126): 0.707
